Measured values published in patent publication US10005767B2, “Compositions and methods for inhibition of the JAK pathway” (Rigel Pharmaceuticals, Inc., priority 2009, dated 2018).
Read-outs that look alike come from different tables or passages of the source.

System: human primary T-cells, IL-2 stimulated proliferation (JAK-1 and JAK-3 dependent; reported as JAK3 activity)
Assay: Human primary T-cell proliferation stimulated by IL-2 (Example 3)
Assay type: cell-based
Conditions: tested under conditions described in Example 3 (IL-2 stimulated human primary T-cell proliferation), read-out: ability to inhibit JAK3 activity, IC50 range (Table V)
How it was run: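 Peripheral-blood human T-cells pre-activated via TCR/CD28, IL-2-starved overnight, then cultured 72 h at 37 °C with compound in Yssel's medium containing IL-2 (80 U/mL in cell suspension). Proliferation read as viable-cell ATP by CellTiter-Glo luminescence; reduction versus control taken as JAK pathway inhibition.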

Compound | IC50 (Homo sapiens, T-cell) [nM] | IC50 [nM]
Cc1cnc(Nc2ccc3c(c2)CCCC(=O)N3)nc1Nc1ccc2oc(=O)[nH]c2c1 [IV-31, 5-(5-methyl-2-(2-oxo-2,3,4,5-tetrahydro-1H-benzo[b]azepin-7-ylamino)pyrimidin-4-ylamino)benzo[d]oxazol-2(3H)-one] | < 500 | –
Cc1cnc(Nc2ccc3c(c2)C(=O)CCCC3)nc1Nc1ccc2oc(=O)[nH]c2c1 [IV-2, N4-(benzo[d]oxazol-2(3H)-on-5-yl)-N2-(6,7,8,9-tetrahydro-5H-benzo[7]annulen-5-on-3-yl)-5-methylpyrimidine-2,4-diamine] | < 500 | –
CCOC(=O)N1CCN(c2cccc(Nc3ncc(C)c(Nc4ccc5oc(=O)[nH]c5c4)n3)c2)CC1 [Compound I-346, N2-[3-(4-ethoxycarbonyl)piperazino]phenyl-5-methyl-N4-(2-oxo-2,3-dihydro-1,3-benzoxazol-5-yl)-2,4-pyrimidinediamine] | – | < 500
Cc1cnc(Nc2ccc(C(=O)Nc3ccccc3)c(C(F)(F)F)c2)nc1Nc1ccc2oc(=O)[nH]c2c1 [Compound I-219, 4-(5-methyl-4-(2-oxo-2,3-dihydrobenzo[d]oxazol-5-ylamino)pyrimidin-2-ylamino)-N-phenyl-2-(trifluoromethyl)benzamide] | < 500 | –
CC(=O)c1cccc(Nc2ncc(C)c(Nc3ccc4oc(=O)[nH]c4c3)n2)c1 [Compound I-130, 5-[2-(3-Acetyl-phenylamino)-5-methyl-pyrimidin-4-ylamino]-3H-benzooxazol-2-one] | < 500 | –
Cc1cnc(Nc2ccc(O)cc2)nc1Nc1ccc2oc(=O)[nH]c2c1 [Compound I-425, 5-[2-(4-Hydroxy-phenylamino)-5-methyl-pyrimidin-4-ylamino]-3H-benzooxazol-2-one] | < 500 | –
Cc1cnc(Nc2cc(C)c(C)c(C)c2)nc1Nc1ccc2oc(=O)n(COP(=O)(OC(C)(C)C)OC(C)(C)C)c2c1 [Compound I-405, N4-{3-[bis(1,1-dimethylethoxy)]phosphinyloxymethyl-2-oxo-2,3-dihydro-1,3-benzoxazol-5-yl}-N2-(3,4,5-trimethyl)phenyl-5-methyl-2,4-pyrimidinediamine] | – | 5000 to 10000
COc1cc(Nc2ncc(C)c(Nc3cc(C)c4oc(=O)[nH]c4c3)n2)cc(C(F)(F)F)c1 [Compound I-427, 5-(2-(3-methoxy-5-(trifluoromethyl)phenylamino)-5-methylpyrimidin-4-ylamino)-7-methylbenzo[d]oxazol-2(3H)-one] | > 10000 | –
Cc1cnc(Nc2cc(OCC(C)C)cc(C(F)(F)F)c2)nc1Nc1ccc2oc(=O)[nH]c2c1 [Compound I-224, -(2-(3-isobutoxy-5-(trifluoromethyl)phenylamino)-5-methylpyrimidin-4-ylamino)benzo[d]oxazol-2(3H)-one] | – | 500 to 5000
O=c1[nH]c2ccc(Nc3nc(Nc4ccc(N5CCOCC5)nc4)ncc3F)cc2[nH]1 [II-19, N4-(benzimidazolin-2-on-5-yl)-N2-((2-morpholinyl)pyridin-5-yl)-5-fluoropyrimidine-2,4-diamine] | – | < 500
CCc1cc(Nc2ncc(C)c(Nc3ccc4oc(=O)[nH]c4c3)n2)cc(C#N)c1Cl [Compound I-383, N2-(4-chloro-3-cyano-5-ethyl)phenyl-5-methyl-N4-(2-oxo-2,3-dihydro-1,3-benzoxazol-5-yl)-2,4-pyrimidinediamine] | – | 500 to 5000
Cc1cnc(Nc2ccc(N3CCN(CC4CC4)[C@H](C)C3)nc2)nc1Nc1ccc2oc(=O)[nH]c2c1 [II-56, (R)-5-(2-(6-(4-(cyclopropylmethyl)-3-methylpiperazin-1-yl)pyridin-3-ylamino)-5-methylpyrimidin-4-ylamino)benzo[d]oxazol-2(3H)-one] | < 500 | –
COc1cc(Nc2ncc(C)c(Nc3ccc4oc(=O)[nH]c4c3)n2)cc(C(F)(F)F)c1 [Compound I-228, 5-(2-(3-deuteratedmethoxy-5-(trifluoromethyl)phenylamino)-5-methylpyrimidin-4-ylamino)benzo[d]oxazol-2(3H)-one] | – | < 500
Cc1cnc(Nc2cccc(S(C)(=O)=O)c2)nc1Nc1ccc2[nH]c(=O)oc2c1 [Compound I-100, N2-((3-methylsulfonyl)phenyl)-N4-(2-oxo-2,3-dihydrobenzo[d]oxazol-6-yl)-5-methylpyrimidine-2,4-diamine] | – | < 500
Cc1cnc(Nc2ccc(N3CCOCC3)cc2)nc1Nc1ccc2oc(=O)[nH]c2c1 [Compound I-338, 5-methyl-N2-(4-morpholino)phenyl-N4-(2-oxo-2,3-dihydro-1,3-benzoxazol-5-yl)-2,4-pyrimidinediamine] | – | < 500
COc1ccc(Nc2ncc(C)c(Nc3ccc4oc(=O)[nH]c4c3)n2)cc1Cl [Compound I-496, 5-[2-(3-Chloro-4-methoxy-phenylamino)-5-methyl-pyrimidin-4-ylamino]-3H-benzooxazol-2-one] | < 500 | –
COc1cc(Nc2ncc(C)c(Nc3ccc4oc(=O)[nH]c4c3)n2)cc(C(C)=O)c1 [Compound I-229, 5-(2-(3-acetyl-5-methoxyphenylamino)-5-methylpyrimidin-4-ylamino)benzo[d]oxazol-2(3H)-one] | < 500 | –

Compound | IC50 (Homo sapiens, T-cell) [nM] | IC50 [nM]
Cc1cnc(Nc2ccc(S(C)(=O)=O)cc2)nc1Nc1ccc2[nH]c(=O)oc2c1 [Compound I-101, N2-((4-methylsulfonyl)phenyl)-N4-(2-oxo-2,3-dihydrobenzo[d]oxazol-6-yl)-5-methylpyrimidine-2,4-diamine] | – | < 500
Cc1cnc(Nc2cccc(N3CCOCC3)c2)nc1Nc1ccc2c(c1)oc(=O)n2C [Compound I-49, N4-(3-methylbenzo[d]oxazol-2(3H)-on-6-yl)-N2-((3-morpholinyl)phenyl)-5-methylpyrimidine-2,4-diamine] | – | < 500
Cc1cnc(Nc2ccc(N3CCN(C)CC3)nc2)nc1Nc1ccc2oc(=O)n(C(C)C)c2c1 [II-7, N2-(6-(4-methylpiperazin-1-yl)pyridin-3-yl)-N4-(3-isopropylbenzo[d]oxazol-2(3H)-on-5-yl)-5-methylpyrimidine-2,4-diamine] | < 500 | –
Cc1cnc(Nc2cccc(S(N)(=O)=O)c2)nc1Nc1ccc2[nH]c(=O)[nH]c2c1 [Compound I-11, N4-(benzimidazolin-2-on-5-yl)-N2-((3-aminosulfonyl)phenyl)-5-methylpyrimidine-2,4-diamine] | – | < 500
Cc1cnc(Nc2ccc3c(c2)NC(=O)CO3)nc1Nc1ccc2oc(=O)[nH]c2c1 [IV-25, 6-(5-methyl-4-(2-oxo-2,3-dihydrobenzo[d]oxazol-5-ylamino)pyrimidin-2-ylamino)-2H-benzo[b][1,4]oxazin-3 (4H)-one] | < 500 | –
Cc1cnc(Nc2ccc(N3CCC(F)(F)CC3)c(Cl)c2)nc1Nc1ccc2oc(=O)[nH]c2c1 [Compound I-277, N2-[3-chloro-4-(4,4-difluoropiperidinyl)]phenyl-5-methyl-N4-(2-oxo-2,3-dihydro-1,3-benzoxazol-5-yl)-2,4-pyrimidinediamine] | – | < 500
Cc1cnc(Nc2ccc(F)c(OC(C)(C)C#N)c2)nc1Nc1ccc2oc(=O)[nH]c2c1 [Compound I-417, N2-[3-(1-cyano-1-methyl)ethoxy-4-fluoro]phenyl-5-methyl-N4-(2-oxo-2,3-dihydro-1,3-benzoxazol-5-yl)-2,4-pyrimidinediamine] | – | < 500
[2H]C([2H])([2H])Oc1cc(C)cc(Nc2ncc(C)c(Nc3ccc4oc(=O)[nH]c4c3)n2)c1 [Compound I-266, 5-(2-(3-methyl-5-trideuteromethoxyphenylamino)-5-methylpyrimidin-4-ylamino)benzo[d]oxazol-2(3H)-one] | < 500 | –
Cc1cnc(Nc2cc(C)c(C)c(C)c2)nc1Nc1ccc2oc(=O)[nH]c2c1 [Compound I-365, N2-(3,4,5-trimethyl)phenyl-5-methyl-N4-(2-oxo-2,3-dihydro-1,3-benzoxazol-5-yl)-2,4-pyrimidinediamine] | – | < 500
Cc1cnc(Nc2ccc3c(c2)N(C)C(=O)CCC3)nc1Nc1ccc2oc(=O)[nH]c2c1 [IV-30, 5-(5-methyl-2-(1-methyl-2-oxo-2,3,4,5-tetrahydro-1H-benzo[b]azepin-8-ylamino)pyrimidin-4-ylamino)benzo[d]oxazol-2(3H)-one] | < 500 | –
Cc1cnc(Nc2cc(OCC3CCC3)cc(C(F)(F)F)c2)nc1Nc1ccc2oc(=O)[nH]c2c1 [Compound I-227, 5-(2-(3-(cyclobutylmethoxy)-5-(trifluoromethyl)phenylamino)-5-methylpyrimidin-4-ylamino)benzo[d]oxazol-2(3H)-one] | 500 to 5000 | –
CCNC(=O)c1ccc(Nc2ncc(C)c(Nc3ccc4oc(=O)[nH]c4c3)n2)cc1 [Compound I-137, N-Ethyl-4-[5-methyl-4-(2-oxo-2,3-dihydro-benzooxazol-5-ylamino)-pyrimidin-2-ylamino]-benzamide] | < 500 | –
COCCCOc1ccc(Nc2ncc(C)c(Nc3ccc4oc(=O)[nH]c4c3)n2)cn1 [II-149, N2-[2-(3-methoxy)propoxypyridin-5-yl]-5-methyl-N4-(2-oxo-2,3-dihydro-1,3-benzoxazol-5-yl)-2,4-pyrimidinediamine] | – | < 500
Cc1cnc(Nc2ccc(Cl)c(OC(F)F)c2)nc1Nc1ccc2oc(=O)[nH]c2c1 [Compound I-418, N2-(4-chloro-3-difluoromethoxy)phenyl-5-methyl-N4-(2-oxo-2,3-dihydro-1,3-benzoxazol-5-yl)-2,4-pyrimidinediamine] | – | < 500
COc1cc(Nc2ncc(C)c(Nc3ccc4oc(=O)[nH]c4c3)n2)cc(OC)c1 [Compound I-280, N2-(3,5-dimethoxy)phenyl-5-methyl-N4-(2-oxo-2,3-dihydro-1,3-benzoxazol-5-yl)-2,4-pyrimidinediamine] | – | < 500
Cc1cnc(Nc2ccc(F)c(S(C)(=O)=O)c2)nc1Nc1cc(F)c2oc(=O)[nH]c2c1 [Compound I-250, 7-fluoro-5-(2-(4-fluoro-3-(methylsulfonyl)phenylamino)-5-methylpyrimidin-4-ylamino)benzo[d]oxazol-2(3H)-one] | < 500 | –
